# Data published in ChEMBL document CHEMBL3886736, “Substituted sulfonamides useful as antiapoptotic Bcl inhibitors” (2016).
# Columns and labels:
# [1] = biological target: Apoptosis regulator Bcl-2 (Homo sapiens, UniProt P10415); assay: Fluorescence Polarization Assay (FPA): The assays were performed in black flat-bottom 384-well plates. The final assay volume was 50 μl prepared from additions of Gst-Bcl-2 (Bcl-2: GENBANK® Accession No. P10415), fluoresceinated 18-mer BIM peptide (NH2-[…]-[FAM]) (SEQ ID NO: 1), and test compounds in assay buffer consisting of 20 mM Sodium Phosphate, 1 mM EDTA, 50 mM NaCl, and 0.05% Pluronic Acid. The reaction was incubated at room temperature for 60 minutes and fluorescence polarization of the reaction was detected on the LJL Plate Reader. Inhibition data were calculated from mP values generated by the no protein control reactions for 100% inhibition and vehicle-only reactions for 0% inhibition. The final concentrations of reagents in the assay were 4.9 nM BCL-2, 5 nM fluoresceinated 18-mer BIM peptide and 1% DMSO.
# Sequence of Apoptosis regulator Bcl-2 (P10415 whole entry): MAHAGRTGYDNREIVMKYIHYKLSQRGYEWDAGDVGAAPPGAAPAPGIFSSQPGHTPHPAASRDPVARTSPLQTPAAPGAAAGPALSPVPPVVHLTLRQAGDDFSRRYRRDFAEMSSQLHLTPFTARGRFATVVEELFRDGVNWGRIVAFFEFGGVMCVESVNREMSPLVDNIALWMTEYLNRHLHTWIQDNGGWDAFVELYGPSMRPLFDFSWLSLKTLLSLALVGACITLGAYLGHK
# [2] = biological target: Bcl-2-like protein 1 (Homo sapiens, UniProt Q07817); assay: Fluorescence Resonance Energy Transfer Assay (FRET): The assays were performed in black flat-bottom 384-well plates. The final assay volume was 55 μl prepared from additions of Biotin-Bcl-xL (Bcl-xL: GENBANK® Accession No. Q07817), fluoresceinated 18-mer BIM peptide (NH2-[…]-[FAM]) (SEQ ID NO: 1), Streptavidin-Terbium FRET detection reagent, and test compounds in assay buffer consisting of 20 mM Sodium Phosphate, 1 mM EDTA, 50 mM NaCl, and 0.05% Pluronic Acid. The reaction was incubated at room temperature for 60 minutes. After 60 minutes, 5 μL of Streptavidin-Terbium FRET detection reagent (Perkin Elmer) was added to the reaction mixture and incubated at room temperature in the dark for 30 mins. The FRET signal generated by the reaction was detected on the Envision Plate Reader Inhibition data were calculated from FRET values generated by the no protein control reactions for 100% inhibition and vehicle-only reactions for 0% inhibition. The final concentration of reagents in the assay was 10 nM Bcl-xL, 5 nM fluo
# Sequence of Bcl-2-like protein 1 (Q07817 whole entry): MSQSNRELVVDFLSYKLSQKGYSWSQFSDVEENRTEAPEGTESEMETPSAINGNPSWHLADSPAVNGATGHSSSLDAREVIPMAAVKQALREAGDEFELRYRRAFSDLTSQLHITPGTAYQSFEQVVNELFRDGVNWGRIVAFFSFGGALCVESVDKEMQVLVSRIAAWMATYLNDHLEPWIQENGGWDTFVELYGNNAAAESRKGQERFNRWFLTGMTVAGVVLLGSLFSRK
IC50 [1],IC50 [2],SMILES
120 nM,60 nM,CCCCN(CCCC)C(=O)c1cn(CCN2CCOCC2)c(-c2ccc(C(=O)NS(=O)(=O)c3ccc4ccccc4c3)cc2C(=O)N2Cc3ccccc3C[C@H]2CO)n1
50 nM,8070 nM,Cc1c(Cl)c(C(=O)NCc2ccc(-c3ccc(CC(=O)O)cc3)cc2)nn1-c1ccc(C(=O)NS(=O)(=O)c2ccc3c(c2)CCN3Cc2ccc(Cl)c(Cl)c2)cc1C(=O)N1CCc2ccccc2C1
200 nM,30 nM,CCCCN(CCCC)C(=O)c1cn(CCCN(C)C)c(-c2ccc(C(=O)NS(=O)(=O)c3ccc4ccccc4c3)cc2C(=O)N2CCc3ccccc3C2)n1
